According to patent US11185516B2 (Laboratorios Silanes S.A. DE C.V., priority 2016, dated 2021):
Structures can show the parent of a compound that is named as a salt.

Legend:
[1] = system: proIL-1β, TNFα, iNOS, IL-6, MCP-1 and IL-12; assay: Inflammation marker expression in palmitate-stimulated L1 adipocytes (RT-qPCR); format: cell-based; settings: 10 mM, palmitate 500 μM, 24 h
Experimental: Palmitate is a saturated fatty acid that simulates an experimental obese state. It can be used as a pro-inflammatory stimulant for cytokines such as proIL-1β, TNFα, iNOS, IL-6, MCP-1 and IL-12.
Next, the relative expression of inflammation markers was analyzed by RT and qPCR using HPRT-1 as a normalizer and the untreated cell expression levels as a reference (for MCP-1 and IL-12) or those treated palmitate. After the treatments, culture media were collected and subsequently analyzed, cells were washed with PBS, and RNA was extracted (illustra RNAspin Mini, GE Healthcare) and reverse transcribed (High Capacity cDNA Reverse Transcription Kit, Life Technologies). The expression of the genes that were the object of the study was analyzed by qPCR using specific probes (TaqMan® Gene Expression Assays, Life Technologies). The relative expression (RQ), represented in the figure, was calculated by the ΔΔCt method.

C2C12 myotubes = assay: Glucose concentration of C2C12 myotube cultures in M1 macrophage conditioned media; format: cell-based, mouse; settings: macrophages treated with 10 mM for 2 h, then LPS/IFNγ 16 h
Experimental: There is considerable evidence showing that inflammation and hyperglycemia are interconnected: inflammation induces hyperglycemia and reciprocally hyperglycemia induces inflammation with the molecular bases not elucidated yet. To explore the participation of GPBP, glucose intake under normoglycemic conditions with conditioned media generated by macrophages differentiated to a proinflammatory M1 phenotype was monitored.
[…]. The glucose concentration of the myotube cultures was determined at different times with Glucocard (Arkray). The controls used were the C2C12 cultured with media conditioned with no stimulated macrophages (Cells) or with M1 conditioned media (M1). The initial glucose levels (time 0) were used as a reference (100%) in each series.

C57BL/6 mice = assay: Glycemia and dietary intake in C57BL/6 mice; format: in vivo, mouse; settings: 1 week
Text: The mean glycemic values at the beginning and end of the experiment are represented for each group (n=3) with their standard deviations.

IRS2−/− (KO) mice = assay: Fasting glycemia and insulinemia in female IRS2−/− mice; format: in vivo, mouse; settings: 4 weeks
Text: Insulin resistance characterizes type 2 diabetes, obesity, and the metabolic syndrome. Thus, insulin sensitivity is a major therapeutic objective for these metabolic diseases. Insulin receptor substrate (IRS) proteins regulate the physiological actions of insulin upon binding to the receptor. Specific deletion of IRS2 in mice produces diabetes due to a developmental reduction of the pancreatic β-cell mass and the inability of existing β-cells to expand in response to peripheral insulin resistance. Additionally, IRS2-deficiency in mice causes hepatic insulin resistance concurrent with failed suppression of hepatic glucose production. While male IRS2−/− mice often die of diabetic complications by 12 weeks of age, females IRS2−/− mice develop a milder form of diabetes and many live up to 6 months. The observation that female IRS2−/− mice eat more than controls led to the discovery that this molecule is critical for hypothalamic regulation of food intake.
The mean glycemic values are represented per group (n=3) pre-treatment (black bars) and post-treatment (gray bars) along with their standard deviations. […] The fasting serum insulin levels taken pre-treatment (black bars) and post-treatment (gray bars) were determined using a kit (Millipore), following the manufacturer's instructions. Mean values and standard deviations are presented for each group (n=3) (FIG. 12D).
Due to peripheral resistance to insulin, the IRS2−/− mice also develop hyperinsulinemia.

AS160 = assay: In vitro AS160 phosphorylation in the presence of GPBP, AMPK and AKT; format: biochemical; settings: 5 mM, with FLAG-GPBP, AKT, AMPK
Experimental: The reactions (25 μL) were carried out at 30° C., and stirred (350 rpm) for 15 min. Then, they were stopped with a reducing loading buffer, heated (95° C., 2 min), and analyzed using electrophoresis, electrotransfer, and autoradiography.

VAPA and VAMPs = assay: Colocalization of VAPA and VAMPs (FIG. 18)
GLUT4 = GLUT4 translocation (FIG. 19A)
[2] = system: IRS2 knockout mice (KO IRS2); assay: Body weight in IRS2 knockout mice; format: in vivo, mouse; settings: 100 mg/kg/day, 8 weeks
Experimental: Body weight of the mice was measured prior to the onset of treatment, at 4 weeks after treatment, and at 8 weeks after treatment. There were 8 mice in each group at the pre-treatment and 4-week treatment time points. […] Statistical differences between the experimental groups shown in FIG. 20 were assessed by Student's T test. P value of <0.05 is indicated by *.

[3] = system: IRS2 knockout mice (KO IRS2); assay: Serum triglycerides in IRS2 knockout mice; format: in vivo, mouse; settings: 100 mg/kg/day, 8 weeks, fasting
Experimental: At the 8-week treatment time point, there were 8 mice in each of the WT groups, 6 mice in the KO IRS2 untreated control group, 7 mice in the KO IRS2 SLN1 treated group, and 8 mice in the KO SLN2 treated group. Blood was collected at the time of sacrifice and used to measure TG under fasting conditions. […] Statistical differences between the experimental groups shown in FIG. 21 were assessed by Student's T test. P value of <0.05 is indicated by *.

GPBP = target: T1, GPBP (Homo sapiens, UniProt Q9Y5P4); settings: 1 mM, 24 h
T1 sequence (Q9Y5P4 1-624): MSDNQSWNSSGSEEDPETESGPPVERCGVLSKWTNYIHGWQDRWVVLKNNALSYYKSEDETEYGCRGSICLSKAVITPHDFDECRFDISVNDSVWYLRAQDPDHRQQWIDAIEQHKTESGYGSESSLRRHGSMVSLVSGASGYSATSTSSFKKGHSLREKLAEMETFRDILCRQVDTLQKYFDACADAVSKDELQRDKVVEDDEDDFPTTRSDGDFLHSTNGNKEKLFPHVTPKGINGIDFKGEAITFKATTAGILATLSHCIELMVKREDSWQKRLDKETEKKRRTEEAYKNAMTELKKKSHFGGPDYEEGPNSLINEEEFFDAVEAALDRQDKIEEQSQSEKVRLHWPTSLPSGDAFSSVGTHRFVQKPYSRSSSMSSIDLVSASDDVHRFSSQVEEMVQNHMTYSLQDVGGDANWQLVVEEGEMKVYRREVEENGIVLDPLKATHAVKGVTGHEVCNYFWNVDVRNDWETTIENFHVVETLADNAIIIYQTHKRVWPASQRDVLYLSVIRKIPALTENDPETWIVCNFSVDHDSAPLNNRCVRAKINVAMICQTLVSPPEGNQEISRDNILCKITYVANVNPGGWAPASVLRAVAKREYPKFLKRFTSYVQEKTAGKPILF

[4] = Stage B, ANOVA of repeated measures
clinical [5] = settings: both, human, in vivo, oral
clinical [6] = settings: both, human, in vivo

high molecular weight GPBP aggregates (GPBP)	AUC (clinical [5])	AUC (clinical [5]; 1240 mg)	AUC (clinical [6])	SMILES	inflammatory response of palmitate-stimulated adipocytes [1]	glucose levels of myotube cultures (hyperglycemic levels) (C2C12 myotubes)	glycemia, end vs beginning (C57BL/6 mice; 100 mg/kg/day mixed with solid food, n=3)	food intake compared to untreated mice (C57BL/6 mice; 100 mg/kg/day)	fasting glycemia post-treatment (IRS2−/− (KO) mice; 100 mg/kg/day with food, 10-12 weeks old)	fasting insulin levels (IRS2−/− (KO) mice; 100 mg/kg/day)	phosphorylation of AS160 (AS160)	colocalization of VAPA and VAMPS (VAPA and VAMPs)	colocalization of VAPA and VAMPS, comparison SLN1 vs SLN2 (VAPA and VAMPs)	GLUT4 translocation (GLUT4)	average body weight, post- vs pre-treatment [2]	serum triglycerides compared to untreated KO IRS2 [3]	Ln AUCt, Ln AUC12 and Ln AUC0, differences attributed to formula, period and sequence factors [4]	Ln Cmax, differences attributed to formula, period and sequence factors [4]	Ln Cmin, differences attributed to formula, period and sequence factors [4]
not present				CN(C)C(=N)N=C(N)N [Metformin hydrochloride, metformin hydrochloride, reference compound]	attenuated the inflammatory response	slowed down the progression towards hyperglycemia	significantly reduced glycemia	food intake was greater	slightly lower, though not statistically significant	higher than at the initiation of the experiment	inhibited AS160 phosphorylation	reduced colocalization	greater reduction effect	failed to do so	not significantly different	lower			
	119 to 134 µg·h/mL	76.1 to 92.5 µg·h/mL	92.4 to 109 µg·h/mL	CN(C)C(=N)N=C(N)N [Metformin, metformin]													did not show statistically significant differences	did not show statistically significant differences	did not show statistically significant differences
